# Results published in patent US7759345B2, “Antitumoral derivatives of ET-743” (priority 2001, dated 2010).
# Read-outs that look alike come from different tables or passages of the source.
# Legend:
# Type in all cases: cell-based
# [1] = test system: SK-BR-3; test: Inhibition of cells growth by colorimetric assay (SRB), SK-BR-3; conditions: SRB, 48 hours exposure
# Description: (§1) 2°.—Inhibition of Cells Growth by Colorimetric Assay.
# (§2) A colorimetric type of assay, using sulforhodamine B (SRB) reaction has been adapted for a quantitative measurement of cell growth and viability [following the technique described by Philip Skehan, et al. (1990), New colorimetric cytotoxicity assay for anticancer drug screening, J. Natl. Cancer Inst., 82:1107-1112]
# (§3) This form of the assay employs 96 well cell culture microplates of 9 mm diameter (Faircloth, 1988; Mosmann, 1983). Most of the cell lines are obtained from American Type Culture Collection (ATCC) derived from different human cancer types.
# (§4) Cells are maintained in RPMI 1640 10% FBS, supplemented with 0.1 g/l penicillin and 0.1 g/l streptomycin sulfate and then incubated at 37° C., 5% CO2 and 98% humidity. For the experiments, cells were harvested from subconfluent cultures using trypsin and resuspended in fresh medium before plating.
# (§5) Cells are seeded in 96 well microtiter plates, at 5×10^3 cells per well in aliquots of 195 μl medium, and they are allowed to attach to the plate surface by growing in drug free medium for 18 hours. Afterward, samples are added in aliquots of 5 μl in a ranging from 10 to 10^−8 μg/ml, dissolved in DMSO/EtOH/PBS (0.5:0.5:99). After 48 hours exposure, the antitumor effect are measured by the SRB methodology: cells are fixed by adding 50 μl of cold 50% (wt/vol) trichloroacetic acid (TCA) and incubating for 60 minutes at 4° C. Plates are washed with deionized water and dried. One hundred μl of SRB solution (0.4% wt/vol in 1% acetic acid) is added to each microtiter well and incubated for 10 minutes at room temperature. Unbound SRB is removed by washing with 1% acetic acid. Plates are air dried and bound stain is solubilized with Tris buffer. Optical densities are read on a automated spectrophotometric plate reader at a single wavelength of 490 nm.
# (§6) The values for mean+/−SD of data from triplicate wells are calculated. Some parameters for cellular responses can be calculated: GI=growth inhibition, TGI=total growth inhibition (cytostatic effect) and LC=cell killing (cytotoxic effect).
# (§7) Obtained results may predict the usefulness of a certain drug as a potential cancer treatment. For this technique, compounds which show GI50 values smaller than 10 μg/ml are selected to continue with further studies. GI50's data allow to predict that not only could a drug be cystostatic, but also it could have a potential in terms of tumor reduction.
# [2] = test system: SK-OV-3; test: Inhibition of cells growth by colorimetric assay (SRB), SK-OV-3; conditions: SRB, 48 hours exposure; for GI50 / LC50: Homo sapiens, SK-OV-3, 48 h
# Description: as §1, §2, §3, §4, §5, §6, §7
# [3] = test system: LoVo-Dox; test: Inhibition of cells growth by colorimetric assay (SRB), LoVo-Dox; conditions: SRB, 48 hours exposure; for GI50 / CC50: Homo sapiens, 48 h
# Description: as §1, §2, §3, §4, §5, §6, §7
# [4] = test system: K-562; test: Inhibition of cells growth by colorimetric assay (SRB), K-562; conditions: SRB, 48 hours exposure; for GI50 / LC50 (50% cell killing): Homo sapiens, K562, 48 h
# Description: as §1, §2, §3, §4, §5, §6, §7
# [5] = test system: SK-MEL-28; test: Inhibition of cells growth by colorimetric assay (SRB), SK-MEL-28; conditions: SRB, 48 hours exposure; for GI50 / CC50: Homo sapiens, SK-MEL-28, 48 h
# Description: as §1, §2, §3, §4, §5, §6, §7
# [6] = test system: A-549; test: Inhibition of cells growth by colorimetric assay (SRB), A-549; conditions: SRB, 48 hours exposure; for GI50 / LC50 (concentration for 50% cell killing): Homo sapiens, A549, 48 h
# Procedure, shortened: (§8)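 48 h SRB cytotoxicity assay; compound range 10–10^−8 μg/ml; seeding 5×10^3 cells/well, 18 h pre-attachment; OD 490 nm; GI, TGI, LC from triplicate means ± SD.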
# [7] = test system: LoVo; test: Inhibition of cells growth by colorimetric assay (SRB), LoVo; conditions: SRB, 48 hours exposure; for GI50 / LC50 (concentration for 50% cell killing): Homo sapiens, LoVo, 48 h
# Description: as §1, §2, §3, §4, §5, §6, §7
# [8] = test system: IGROV-ET; test: Inhibition of cells growth by colorimetric assay (SRB), IGROV-ET; conditions: SRB, 48 hours exposure; for GI50 / CC50: Homo sapiens, 48 h
# Description: as §1, §2, §3, §4, §5, §6, §7
# [9] = test system: DU-145; test: Inhibition of cells growth by colorimetric assay (SRB), DU-145; conditions: SRB, 48 hours exposure; for GI50 / CC50: Homo sapiens, DU-145, 48 h
# Description: as §1, §2, §3, §4, §5, §6, §7
# [10] = test system: IGROV-1; test: Inhibition of cells growth by colorimetric assay (SRB), IGROV-1; conditions: SRB, 48 hours exposure; for GI50 / CC50: Homo sapiens, IGROV-1, 48 h
# Description: as §1, §2, §3, §4, §5, §6, §7
# [11] = test system: HT-29; test: Inhibition of cells growth by colorimetric assay (SRB), HT-29; conditions: SRB, 48 hours exposure; for GI50 / LC50 (concentration for 50% cell killing): Homo sapiens, HT-29, 48 h
# Procedure, shortened: as §8
# [12] = test system: PANC-1; test: Inhibition of cells growth by colorimetric assay (SRB), PANC-1; conditions: SRB, 48 hours exposure; for GI50 / LC50 (concentration for 50% net cell kill): Homo sapiens, PANC-1, 48 h
# Description: as §1, §2, §3, §4, §5, §6, §7
# [13] = test system: LNCaP; test: Inhibition of cells growth by colorimetric assay (SRB), LNCaP; conditions: SRB, 48 hours exposure
# Description: as §1, §2, §3, §4, §5, §6, §7
structure (smiles),measurement,setting,value
COc1cc2c(cc1O)CCN[C@]21CS[C@@H]2c3c(OC(C)=O)c(C)c4c(c3[C@H](COC1=O)N1C2[C@H]2c3c(cc(C)c(OC)c3OC(C)C)C[C@@H]([C@@H]1C#N)N2C)OCO4 (stereo partly drawn) [Compound 48],GI50,"[1]; Homo sapiens, SK-BR-3, 48 h, SK-BR3, read-out: GI50 SK-BR3",443 nM
same,CC50,"[1]; Homo sapiens, SK-BR-3, 48 h, read-out: LC50 SK-BR3, SK-BR3",6970 nM
same,TGI SK-BR3,[1]; SK-BR3,1.54E-06
same,GI50,"[2]; SK-OV3, read-out: GI50 SK-OV3",614 nM
same,LC50,"[2]; read-out: LC50 SK-OV3, SK-OV3",12300 nM
same,TGI SK-OV3,[2]; SK-OV3,3.40E-06
same,GI50,"[3]; LOVO-DOX, read-out: GI50 LOVO-DOX",790 nM
same,CC50,"[3]; read-out: LC50 LOVO-DOX, LOVO-DOX",12300 nM
same,TGI LOVO-DOX,[3]; LOVO-DOX,4.18E-06
same,GI50,"[4]; K-562, read-out: GI50 K-562",223 nM
same,LC50 (50% cell killing),"[4]; read-out: LC50 K-562, K-562",1230 nM
same,TGI K-562,[4]; K-562,5.47E-07
same,GI50,"[5]; MEL-28, read-out: GI50 MEL-28",1100 nM
same,CC50,"[5]; read-out: LC50 MEL-28, MEL-28",7060 nM
same,TGI MEL-28,[5]; MEL-28,2.87E-06
same,TGI A-549,[6]; A-549,7.50E-07
same,GI50,"[6]; A-549, read-out: GI50 A-549",272 nM
same,LC50 (concentration for 50% cell killing),"[6]; read-out: LC50 A-549, A-549",3890 nM
same,GI50,"[7]; LOVO, read-out: GI50 LOVO",713 nM
same,LC50 (concentration for 50% cell killing),"[7]; read-out: LC50 LOVO, LOVO",12300 nM
same,TGI LOVO,[7]; LOVO,2.95E-06
same,GI50,"[8]; IGROV-ET, read-out: GI50 IGROV-ET",678 nM
same,CC50,"[8]; read-out: LC50 IGROV-ET, IGROV-ET",12300 nM
same,TGI IGROV-ET,[8]; IGROV-ET,2.93E-06
same,TGI DU-145,[9]; DU-145,3.20E-06
same,GI50,"[9]; DU-145, read-out: GI50 DU-145",614 nM
same,CC50,"[9]; read-out: LC50 DU-145, DU-145",12300 nM
same,GI50,"[10]; IGROV, read-out: GI50 IGROV",439 nM
same,CC50,"[10]; read-out: LC50 IGROV, IGROV",7980 nM
same,TGI IGROV,[10]; IGROV,1.78E-06
same,TGI HT-29,[11]; HT-29,1.23E-05
same,GI50,"[11]; HT-29, read-out: GI50 HT-29",1970 nM
same,LC50 (concentration for 50% cell killing),"[11]; read-out: LC50 HT-29, HT-29",12300 nM
same,GI50,"[12]; PANC-1, read-out: GI50 PANC-1",910 nM
same,LC50 (concentration for 50% net cell kill),"[12]; read-out: LC50 PANC-1, PANC-1",12300 nM
same,TGI PANC-1,[12]; PANC-1,5.10E-06
COc1cc2c(cc1O)CCN[C@]21CS[C@@H]2c3c(OC(C)=O)c(C)c4c(c3[C@H](COC1=O)N1C2[C@H]2c3c(cc(C)c(OC)c3OC(C)C)C[C@@H]([C@@H]1O)N2C)OCO4 (stereo partly drawn) [Compound 102],GI50,"[2]; SK-OV3, read-out: SK-OV3 GI50",41.3 nM
same,LC50,"[2]; read-out: SK-OV3 LC50, SK-OV3",124 nM
same,SK-OV3 TGI,[2]; SK-OV3,1.10E-07
same,GI50,"[3]; LOVO-DOX, read-out: LOVO-DOX GI50",417 nM
same,CC50,"[3]; read-out: LOVO-DOX LC50, LOVO-DOX",12400 nM
same,LOVO-DOX TGI,[3]; LOVO-DOX,1.02E-06
same,GI50,"[4]; K-562, read-out: K-562 GI50",10.2 nM
same,LC50 (50% cell killing),"[4]; read-out: K-562 LC50, K-562",126 nM
same,K-562 TGI,[4]; K-562,4.35E-08
same,GI50,"[5]; MEL-28, read-out: MEL-28 GI50",37.9 nM
same,CC50,"[5]; read-out: MEL-28 LC50, MEL-28",128 nM
same,MEL-28 TGI,[5]; MEL-28,6.89E-08
same,A-549 TGI,[6]; A-549,4.24E-07
same,GI50,"[6]; A-549, read-out: A-549 GI50",152 nM
same,LC50 (concentration for 50% cell killing),"[6]; read-out: A-549 LC50, A-549",1190 nM
same,GI50,"[13]; Homo sapiens, LNCaP, 48 h, read-out: LNCAP GI50, LNCAP",17.5 nM
same,CC50,"[13]; Homo sapiens, LNCaP, 48 h, read-out: LNCAP LC50, LNCAP",95.4 nM
same,LNCAP TGI,[13]; LNCAP,4.09E-08
same,GI50,"[7]; LOVO, read-out: LOVO GI50",69.8 nM
same,LC50 (concentration for 50% cell killing),"[7]; read-out: LOVO LC50, LOVO",12400 nM
same,LOVO TGI,[7]; LOVO,4.58E-07
same,GI50,"[8]; IGROV-ET, read-out: IGROV-ET GI50",101 nM
same,CC50,"[8]; read-out: IGROV-ET LC50, IGROV-ET",7810 nM
same,IGROV-ET TGI,[8]; IGROV-ET,1.53E-06
same,DU-145 TGI,[9]; DU-145,7.84E-08
same,GI50,"[9]; DU-145, read-out: DU-145 GI50",39.8 nM
same,CC50,"[9]; read-out: DU-145 LC50, DU-145",124 nM
same,GI50,"[10]; IGROV, read-out: IGROV GI50",35.3 nM
same,CC50,"[10]; read-out: IGROV LC50, IGROV",134 nM
same,IGROV TGI,[10]; IGROV,7.63E-08
same,HT-29 TGI,[11]; HT-29,2.19E-06
same,GI50,"[11]; HT-29, read-out: HT-29 GI50",87 nM
same,LC50 (concentration for 50% cell killing),"[11]; read-out: HT-29 LC50, HT-29",12400 nM
same,GI50,"[12]; PANC-1, read-out: PANC-1 GI50",55.4 nM
same,LC50 (concentration for 50% net cell kill),"[12]; read-out: PANC-1 LC50, PANC-1",12400 nM
same,PANC-1 TGI,[12]; PANC-1,1.39E-07
